Data reported in patent US20240182465A1 (GENFLEET THERAPEUTICS (SHANGHAI) INC., priority 2021, published 2024).
Where a name gives a salt, the structure may show the parent alone.

Key:
HPK1 [1] = target: T1, HPK1 (Homo sapiens, UniProt Q92918); assay: HPK1 kinase activity assay (ADP-Glo); settings: HPK1 Kinase activity IC50 (nM), 1 nM HPK1, 10 μM ATP, 0.1 μg/μL MBP
T1 sequence (Q92918 1-346 limits assumed): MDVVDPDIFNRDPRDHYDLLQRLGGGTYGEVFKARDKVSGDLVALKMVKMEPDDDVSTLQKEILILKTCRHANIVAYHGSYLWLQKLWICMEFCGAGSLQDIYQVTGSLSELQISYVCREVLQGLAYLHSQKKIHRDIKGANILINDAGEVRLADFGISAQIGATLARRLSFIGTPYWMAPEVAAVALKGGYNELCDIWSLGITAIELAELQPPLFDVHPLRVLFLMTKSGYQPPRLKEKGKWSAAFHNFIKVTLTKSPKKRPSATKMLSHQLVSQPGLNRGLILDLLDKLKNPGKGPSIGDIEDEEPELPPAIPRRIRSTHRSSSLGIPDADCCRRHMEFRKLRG
Experimental: Preparation of buffer: 1× reaction buffer (40 mM Tris-HCl, 20 mM MgCl2, 0.01% Brij35, 50 μM DTT, 0.1 mg/ml BSA) was prepared using sterile water, which was prepared and used on the day of the experiment.
(§1) Preparation of 1000× drug stock plate: a 1000× compound stock plate was prepared. […] The compound stock plate was sealed with a sealing film and stored in a −20° C. refrigerator for later use.
Compound preparation and dosing: the 1000× drug stock plate was taken and melted at room temperature in the dark. Then 5× drug intermediate plate was prepared using reaction buffer and mixed well. 2 μL was transferred from the 5× drug intermediate plate into a 384-well plate, and negative control well and positive control well (in which 2 μL reaction buffer containing 0.5% DMSO was added) were set. Each point was repeated twice.
Preparation and incubation of reaction mixture: HPK1 protein was diluted to a 2.5× working solution with reaction buffer. 4 μL 2.5×HPK1 protein was added to each well containing test compound and positive control well, and 4 μL of reaction buffer without HPK1 protein was added to the negative control well. The obtained mixture was centrifuged at 1000 rpm for 1 min and then incubated in a 20° C. incubator for 15 min. A 2.5× mixed working solution of MBP protein and ATP was prepared with reaction buffer at concentrations of 0.5 μg/μL and 50 PM, respectively. 4 μL of the mixed working solution of MBP and ATP was added to each well, centrifuged at 1000 rpm for 1 min, and then incubated in a 20° C. incubator for 90 min.
ADP-Glo detection and reading plate: 10 μl ADP-Glo was added to each well of the test plate. The resulting mixture was centrifuged at 1000 rpm for 1 min and incubated in a 20° C. incubator for 60 min. Then 10 μL of the final incubation solution was transferred from the test plate to a new 384-well plate. 10 μL of kinase detection reagent was added to each well, centrifuged at 400 g for 1 min, and incubated in a 20° C. incubator for 60 min. Chemiluminescent signals were read by a microplate reader.

HPK1 [2] = target: HPK1 (Homo sapiens, UniProt Q92918); assay: SLP76 phosphorylation assay (intracellular HPK1 inhibitory activity, p-SLP76 Ser376 sandwich ELISA); settings: p-SLP76 IC50(nM), Jurkat, Clone E6-1 cells; 1 h compound pre-incubation, anti-CD3 beads stimulation 20 min; SLP76 phosphorylation at S376
Target sequence in this assay (Q92918 whole entry): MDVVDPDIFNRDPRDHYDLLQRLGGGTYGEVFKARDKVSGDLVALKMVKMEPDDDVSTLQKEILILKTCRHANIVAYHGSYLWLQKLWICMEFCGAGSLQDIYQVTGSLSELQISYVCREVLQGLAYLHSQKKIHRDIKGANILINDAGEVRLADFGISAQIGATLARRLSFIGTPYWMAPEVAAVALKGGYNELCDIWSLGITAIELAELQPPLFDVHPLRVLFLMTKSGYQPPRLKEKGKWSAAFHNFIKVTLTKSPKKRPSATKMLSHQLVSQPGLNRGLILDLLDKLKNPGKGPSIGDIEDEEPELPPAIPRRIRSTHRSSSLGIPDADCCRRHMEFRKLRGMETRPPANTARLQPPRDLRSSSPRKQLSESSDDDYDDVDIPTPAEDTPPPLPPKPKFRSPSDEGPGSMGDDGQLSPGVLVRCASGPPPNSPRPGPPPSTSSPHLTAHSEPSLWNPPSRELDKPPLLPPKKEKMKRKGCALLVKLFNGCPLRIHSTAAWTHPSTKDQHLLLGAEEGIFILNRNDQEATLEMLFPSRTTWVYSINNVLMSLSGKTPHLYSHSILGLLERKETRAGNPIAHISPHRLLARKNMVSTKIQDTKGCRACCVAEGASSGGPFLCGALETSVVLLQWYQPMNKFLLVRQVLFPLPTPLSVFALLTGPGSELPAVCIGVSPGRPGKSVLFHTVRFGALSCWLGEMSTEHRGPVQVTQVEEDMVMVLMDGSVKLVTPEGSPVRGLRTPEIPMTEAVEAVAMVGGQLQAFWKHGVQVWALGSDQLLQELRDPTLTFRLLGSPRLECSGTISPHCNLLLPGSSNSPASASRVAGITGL
Experimental: Intracellular HPK1 inhibitory activity was tested by the detection of SLP76 phosphorylation at S376.
as §1
Preparation of Beads wash buffer: 0.1 mL FBS and 0.4 mL 0.5 M EDTA (with a final concentration of 2 mM) were added to 100 mL PBS and stored in a 4° C. refrigerator for later use.
100× Protease Inhibitor Cocktail in 1/20 total volume was added and stored on wet ice for later use. The buffer was ready to use.
Cell inoculation and dosing: the 1000× drug stock plate was taken and melted at room temperature in the dark. […] Jurkat cells in the logarithmic growth phase were selected and collected. […] The cells were inoculated into a 96-well plate (the volume was 90 μL per well), and a blank control well (without cells inoculation, and in which 110 μL of medium was added) was set. 10 μL of a drug-containing culture medium (10×) was transferred from the 10× drug intermediate plate into the 96-well cell plate (with a final concentration of 0.1% DMSO), and set a DMSO control group (in which 0.1% DMSO was added to the treated cells), a stimulated control group (in which 10 μL of culture medium was added to treat cells) and an unstimulated group (in which 10 μL of culture medium was added to treat cells). The wells were duplicated, gently patted, mixed, and then placed into a 5% CO2 incubator at 37° C. for 1 h.
Anti-CD3 beads stimulation: Dynabeads anti-human CD3 was taken, shaken, and mixed for 60 s. The required volume of beads was pipetted, and an equal volume or at least 1 mL of washing solution was added to wash once. Fresh complete medium was then added to resuspend and adjust the density of the beads to 4×10^7/mL, and the beads were placed on ice for later use. At the end of drug pre-incubation, the cell culture plate was taken out. 10 μL Dynabeads anti-human CD3 was added to each well to treat the cells, and 10 μL the culture medium was added to the unstimulated group. The cell culture plate was shaken to mix well at 2500 rpm for 10 s, and then placed into a 5% CO2 incubator at 37° C. and continued to culture for 20 min.
Detection of p-SLP76 protein level. PathScan Phospho-SLP-76 (Ser376) Sandwich ELISA Kit was applied to detect p-SLP76 protein level. At the end of the Anti-CD3 beads stimulation, the cell culture plate was removed from the incubator. […] After lysis, the cell culture plate was centrifuged at 4° C., 400×g for 5 min. 25 μL of sample and 75 μL of sample diluent were added to each well, and the plate was placed in a 5% CO2 incubator at 37° C. for 2 h. The subsequent detection steps were carried out following the kit instructions, and the absorbance (OD value) of each well was read at 450 nm by a microplate reader.

SMILES	IC50 (HPK1 [1]) [nM]	IC50 (HPK1 [2]) [nM]
Cc1c[nH]c2ncc(-c3cc4c(c([C@@H]5CCCN5)c3)CCN(C(=O)C(C)(C)O)C4)cc12 [Compound Z301, (S)-2-hydroxy-2-methyl-1-(7-(3-methyl-11H-pyrrolo[2,3-b]pyridin-5-yl)-5-(pyrrolidin-2-yl)-3,4-dihydroisoquinolin-2(1H)-yl)propan-1-one]	0.61	254
Cc1c[nH]c2ncc(-c3cc4c(c([C@@H]5CCCN5)c3)CCN(C(=O)C3CC3)C4)cc12 [Compound Z302, (S)-cyclopropyl (7-(3-methyl-1H-pyrrolo[2,3-b]pyridin-5-yl)-5-(pyrrolidin-2-yl)-3,4-dihydroisoquinolin-2(1H)-yl)methanone]	0.93	125
COC(=O)N1CCc2c(cc(-c3cnc4[nH]cc(C)c4c3)cc2[C@@H]2CCCN2)C1 [Compound Z305, methyl (S)-7-(3-methyl-1H-pyrrolo[2,3-b]pyridin-5-yl)-5-(pyrrolidin-2-yl)-3,4-dihydroisoquinoline-2(1H)-carboxylate]	0.84	297
Cc1c[nH]c2ncc(-c3cc4c(c([C@@H]5CCCN5)c3)CN(C(=O)c3cnn(CC(F)F)c3)CC4)cc12 [Compound Z306, (S)-[1-(2,2-difluoroethyl)pyrazol-4-yl]-[6-(3-methyl-1H-pyrrolo[2,3-b]pyridin-5-yl)-8-[pyrrolidin-2-yl]-3,4-dihydro-1H-isoquinolin-2-yl]methanone]	0.64	170
Cc1c[nH]c2ncc(-c3cc4c(c([C@@H]5CCCN5)c3)CCN(c3ccnn3C)C4)cc12 [Compound Z307, (S)-2-(1-methyl-1H-pyrazol-5-yl)-7-(3-methyl-1H-pyrrolo[2,3-b]pyridin-5-yl)-5-(pyrrolidin-2-yl)-1,2,3,4-tetrahydroisoquinoline]	0.53	277
Cc1c[nH]c2ncc(-c3cc4c(c([C@@H]5CCCN5)c3)CCN(CC(F)(F)F)C4)cc12 [Compound Z308, (S)-7-(3-methyl-1H-pyrrolo[2,3-b]pyridin-5-yl)-5-(pyrrolidin-2-yl)-2-(2,2,2-trifluoroethyl)-1,2,3,4-tetrahydroisoquinoline]	2.06	441
Cc1c[nH]c2ncc(-c3cc4c(c([C@@H]5CCCN5)c3)CCN(C(=O)C3(O)CC3)C4)cc12 [Compound Z310, (S)-(1-hydroxycyclopropyl)(7-(3-methyl-1H-pyrrolo[2,3-b]pyridin-5-yl)-5-(pyrrolidin-2-yl)-3,4-dihydroisoquinolin-2(1H)-yl)methanone]	1.79	567
Cc1c[nH]c2ncc(-c3cc4c(c([C@@H]5CCCN5)c3)CCN(C(=O)CC3CCOCC3)C4)cc12 [Compound Z311, 1-[7-(3-methyl-1H-pyrrolo[2,3-b]pyridin-5-yl)-5-[(2S)-tetrahydro-1H-pyrrol-2-yl]-1,2,3,4-tetrahydroisoquinolin-2-yl]-2-(3,4,5,6-tetrahydro-2H-pyran-4-yl)ethan-1-one]	0.56	146
Cc1c[nH]c2ncc(-c3cc4c(c([C@@H]5CCCN5)c3)CCN(C(=O)C3CCOCC3)C4)cc12 [Compound Z312, (S)-1-[7-(3-methyl-1H-pyrrolo[2,3-b]pyridin-5-yl)-5-[pyrrolidin-2-yl]-3,4-dihydroisoquinolin-2(1H)-yl](tetrahydro-2H-pyran-4-yl)methanone]	0.47	88.4
Cc1c[nH]c2ncc(-c3cc4c(c([C@@H]5CCCN5)c3)CN(c3ccncn3)CC4)cc12 [Compound Z315, (S)-6-(3-methyl-1H-pyrrolo[2,3-b]pyridin-5-yl)-2-(pyrimidin-4-yl)-8-(pyrrolidin-2-yl)-1,2,3,4-tetrahydroisoquinoline]	0.29	225
Cc1c[nH]c2ncc(-c3cc4c(c([C@@H]5COCCN5)c3)CN(S(C)(=O)=O)CC4)cc12 [Compound Z316, 2-(methyldioxo-λ6-sulfanyl)-6-(3-methyl-1H-pyrrolo[2,3-b]pyridin-5-yl)-8-[(3R)-1,4-oxazecyclohex-3-yl]-1,2,3,4-tetrahydroisoquinoline]	0.74	314
Cc1c[nH]c2ncc(-c3cc4c(c([C@@H]5COCCN5)c3)CN(C(=O)[C@@](C)(O)C(F)(F)F)CC4)cc12 [Compound Z317, (R)-3,3,3-trifluoro-2-hydroxy-2-methyl-1-[6-(3-methyl-1H-pyrrolo[2,3-b]pyridin-5-yl)-8-[(R)-morpholin-3-yl]-3,4-dihydroisoquinolin-2(1H)-yl]propan-1-one]	0.88	200
Cc1c[nH]c2ncc(-c3cc4c(c([C@@H]5CCCN5)c3)CN(C(=O)c3cnn(C5CC5)c3)CC4)cc12 [Compound Z319, (S)-(1-cyclopropyl-1H-pyrazol-4-yl)(6-(3-methyl-1H-pyrrolo[2,3-b]pyridin-5-yl)-8-(pyrrolidin-2-yl)-3,4-dihydroisoquinolin-2(1H)-yl)methanone]	0.28	111
Cc1cc(N2CCc3cc(-c4cnc5[nH]cc(C)c5c4)cc([C@@H]4CCCN4)c3C2)ccn1 [Compound Z320, (S)-6-(3-methyl-1H-pyrrolo[2,3-b]pyridin-5-yl)-2-(2-methylpyridin-4-yl)-8-(pyrrolidin-2-yl)-1,2,3,4-tetrahydroisoquinoline formate]	0.73	121
c1cn2ccc(-c3c[nH]c4ncc(-c5cc6c(c([C@@H]7CCCN7)c5)COCC6)cc34)cc2n1 [Compound Z323]	0.49	204
Cc1c[nH]c2ncc(-c3cc4c(c([C@@H]5CCCN5)c3)CN(C(=O)c3ccnc(C(C)(C)O)c3)CC4)cc12 [Compound Z327, (S)-(2-(2-hydroxypropan-2-yl)pyridin-4-yl)(6-(3-methyl-1H-pyrrolo[2,3-b]pyridin-5-yl)-8-(pyrrolidin-2-yl)-3,4-dihydroisoquinolin-2(1H)-yl)methanone]	0.33	150
Cc1ncc(C(=O)N2CCc3cc(-c4cnc5[nH]cc(C)c5c4)cc([C@@H]4CCCN4)c3C2)cn1 [Compound Z328, (S)-[6-(3-methyl-1H-pyrrolo[2,3-b]pyridin-5-yl)-8-[pyrrolidin-2-yl]-3,4-dihydroisoquinolin-2(1H)-yl](2-methylpyrimidin-5-yl)methanone]	0.33	90.7
Cc1cc(C(=O)N2CCc3cc(-c4cnc5[nH]cc(C)c5c4)cc([C@@H]4CCCN4)c3C2)ncn1 [Compound Z331, (S)-(6-(3-methyl-1H-pyrrolo[2,3-b]pyridin-5-yl)-8-(pyrrolidin-2-yl)-3,4-dihydroisoquinolin-2(1H)-yl) (6-methylpyrimidin-4-yl)methanone]	0.7	174
CCn1cc(C(=O)N2CCc3cc(-c4cnc5[nH]cc(C)c5c4)cc([C@@H]4CCCN4)c3C2)cn1 [Compound Z335, (S)-(1-ethyl-1H-pyrazol-4-yl)-[6-(3-methyl-1H-pyrrolo[2,3-b]pyridin-5-yl)-8-[pyrrolidin-2-yl]-3,4-dihydroisoquinolin-2(1H)-yl]methanone]	0.25	170
Cc1c[nH]c2ncc(-c3cc4c(c([C@@H]5CCCN5)c3)CN(C(=O)c3cnn(C(F)F)c3)CC4)cc12 [Compound Z336, (S)-(1-(difluoromethyl)-1H-pyrazol-4-yl)-[6-(3-methyl-1H-pyrrolo[2,3-b]pyridin-5-yl)-8-[pyrrolidin-2-yl]-3,4-dihydroisoquinolin-2(1H)-yl]methanone]	0.36	174
Cc1c[nH]c2ncc(-c3cc4c(c([C@@H]5CCCN5)c3)CN(C(=O)c3cn(C)nc3C(F)(F)F)CC4)cc12 [Compound Z337, [6-(3-methyl-1H-pyrrolo[2,3-b]pyridin-5-yl)-8-[(2S)-pyrrolidin-2-yl]-3,4-dihydro-1H-isoquinolin-2-yl]-[l-methyl-3-(trifluoromethyl)pyrazol-4-yl]methanone]	1.57	359
Cc1nn(C2CC2)cc1C(=O)N1CCc2cc(-c3cnc4[nH]cc(C)c4c3)cc([C@@H]3CCCN3)c2C1 [Compound Z341]	1.09	492
Cc1cc(N2CCc3cc(-c4cnc5[nH]cc(C)c5c4)cc([C@@H]4CCCN4)c3C2)cc(C)n1 [Compound Z343, (S)-2-(2,6-dimethylpyridin-4-yl)-6-(3-methyl-1H-pyrrolo[2,3-b]pyridin-5-yl)-8-(pyrrolidin-2-yl)-1,2,3,4-tetrahydroisoquinoline]	0.4	177
COc1cc(N2CCc3cc(-c4cnc5[nH]cc(C)c5c4)cc([C@@H]4CCCN4)c3C2)ccn1 [Compound Z344, (S)-2-(2-methoxypyridin-4-yl)-6-(3-methyl-1H-pyrrolo[2,3-b]pyridin-5-yl)-8-(pyrrolidin-2-yl)-1,2,3,4-tetrahydroisoquinoline]	1.52	386
Cc1c[nH]c2ncc(-c3cc4c(c([C@@H]5CCCN5)c3)CN(C(=O)c3cnn(C5CC5)c3C)CC4)cc12 [Compound Z346, (S)-(1-cyclopropyl-5-methyl-1H-pyrazol-4-yl)-[6-(3-methyl-1H-pyrrolo[2,3-b]pyridin-5-yl)-8-[pyrrolidin-2-yl]-3,4-dihydroisoquinolin-2(1H)-yl]methanone]	0.43	226
